Results on six compounds are retold here after US7498348B2, “1 H-imidazole derivatives as cannabinoid receptor modulators” (Solvay Pharmaceuticals, Inc., priority 2003, dated 2009).

In brackets after ≈: the same amount, converted by molar mass. Read-outs that look alike come from different tables or passages of the source. Bounds are passed on as bounds.

Series [1] is described as follows: Determination of aqueous solubility (precipitate formation after 100-fold dilution of DMSO stock solutions). The class given is physicochemical. The settings on record: kinetic from dmso stock. How it is done:
Determination of Aqueous Solubility
The compounds are dissolved in DMSO to give 10 mg/ml stock solutions. These stock solutions are divided over several plates. Several diluted concentrations are made with DMSO to 5, 2.5, 1.25, 0.625 and 0.3125 mg/ml, respectively. The stock solution and each derived concentration from this stock solution is taken and diluted 100 fold with water or with water containing a buffer. In every case this gives an aqueous solution which contains 1% DMSO (v/v) and 100, 50, 25, 12.5 and 6.25 and 3.125 μg compound/ml, respectively. The formation of a precipitate is determined in each plate. The measurements were performed at pH=7, applying a HEPES buffer and at pH=2, applying hydrochloric acid. Aqueous solubility is expressed in μg/ml in the table below.
Aqueous solubilities of two of the compounds of general formula (I), the compounds 1 and 4, and the compound 1-(4-chlorophenyl)-2-(2,4-dichloro-phenyl)-N-cyclohexyl-1H-imidazole-4-carboxamide (compound 3 from WO 03/063781) were determined according to the procedure described above.

Series [2] concerns the target T1, human cannabinoid CB1 receptor (Homo sapiens, UniProt P21554).
T1 construct: expressed in transfected cells; host or cells: Chinese hamster ovary (CHO) cells, stably transfected; membrane preparations
The series is described as follows: In vitro affinity for cannabinoid-CB1 receptors ([3H]CP-55,940 radioligand, CHO cell membrane preparations). As to conditions: CHO cell membranes, stably transfected human CB1, [3H]CP-55,940; read-out: Human cannabinoid-CB1 receptor In vitro affinity - pKi value (converted). In kind it is binding. How it is done: In Vitro Affinity for Cannabinoid-CB1 Receptors
The affinity of the compounds of the invention for cannabinoid CB1 receptors can be determined using membrane preparations of Chinese hamster ovary (CHO) cells in which the human cannabinoid CB1 receptor is stably transfected in conjunction with [^3H]CP-55,940 as radioligand. After incubation of a freshly prepared cell membrane preparation with the [^3H]-ligand, with or without addition of compounds of the invention, separation of bound and free ligand is performed by filtration over glassfiber filters. Radioactivity on the filter is measured by liquid scintillation counting.
Pharmacological test results of a subset of the compounds of the invention, obtained with the assay described above, are given in table 2 below: […]

T1 sequence (P21554 whole entry): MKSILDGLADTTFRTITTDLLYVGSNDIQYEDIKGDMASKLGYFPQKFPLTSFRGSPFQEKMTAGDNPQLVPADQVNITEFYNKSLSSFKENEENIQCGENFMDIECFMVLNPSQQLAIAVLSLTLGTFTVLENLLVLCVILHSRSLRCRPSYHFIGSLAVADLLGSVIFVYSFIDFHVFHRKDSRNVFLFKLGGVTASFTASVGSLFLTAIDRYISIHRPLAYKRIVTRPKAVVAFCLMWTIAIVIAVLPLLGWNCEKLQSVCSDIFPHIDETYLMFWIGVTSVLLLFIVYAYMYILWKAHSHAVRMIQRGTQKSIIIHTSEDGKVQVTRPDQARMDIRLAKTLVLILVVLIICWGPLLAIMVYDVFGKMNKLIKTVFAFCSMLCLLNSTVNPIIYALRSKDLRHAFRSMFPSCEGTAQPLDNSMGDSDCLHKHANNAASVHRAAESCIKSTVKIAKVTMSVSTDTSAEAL

`O=C(NC1CCCCC1)c1cn(-c2ccc(Cl)cc2)c(-c2ccc(Cl)cc2Cl)n1` [1-(4-chlorophenyl)-2-(2,4-dichloro-phenyl)-N-cyclohexyl-1H-imidazole-4-carboxamide, reference compound]: the solubility is 25 µg/mL (≈ 55.7 µM) in series [1] (pH 2, simulated gastric fluid) and 25 µg/mL (≈ 55.7 µM) in series [1] (pH 7, aqueous buffer).
`O=C(NC1CCCCC1)c1nc(-c2ccc(Cl)cc2Cl)n(-c2ccc(Cl)cc2)c1CN1CCCC1` [Compound 1, N-cyclohexyl-1-(4-chlorophenyl)-2-(2,4-dichlorophenyl)-5-(pyrrolidin-1-ylmethyl)-1H-imidazole-4-carboxamide] returned a melting point of 155 to 157 °C. The same compound yielded a solubility in series [1] (pH 2, simulated gastric fluid) of more than 100 µg/mL. Moreover, in series [1] (pH 7, aqueous buffer), the solubility was determined as 50 µg/mL (≈ 94 µM). For the same compound, the Ki in series [2] is 7.94 nM.
With `CCN(C)Cc1c(C(=O)NC2CCCCC2)nc(-c2ccc(Cl)cc2Cl)n1-c1ccc(Cl)cc1` [Compound 2, N-cyclohexyl-1-(4-chlorophenyl)-2-(2,4-dichlorophenyl)-5-(N-ethyl,N-methylaminomethyl)-1H-imidazole-4-carboxamide], the melting point was in the range of 135 to 136 °C. Moreover, the Ki in series [2] is 6.31 nM.
For the compound `CN(C)Cc1c(C(=O)NN2CCCCC2)nc(-c2ccc(Cl)cc2Cl)n1-c1ccc(Cl)cc1` [Compound 3, N-(piperidin-1-yl)-1-(4-chlorophenyl)-2-(2,4-dichlorophenyl)-5-(N,N-dimethylaminomethyl)-1H-imidazole-4-carboxamide], the melting point was 163 to 166 °C. The Ki in series [2] is 100 nM.
Consider `CN(C)Cc1c(C(=O)NC2CCCCC2)nc(-c2ccc(Cl)cc2Cl)n1-c1ccc(Cl)cc1` [Compound 4, N-cyclohexyl-1-(4-chlorophenyl)-2-(2,4-dichlorophenyl)-5-(N,N-dimethylaminomethyl)-1H-imidazole-4-carboxamide], for which the solubility in series [1] (aqueous buffer, pH = 7, HEPES buffer, 1% DMSO (v/v), read-out: Aqueous solubility in μg/ml at pH = 7) was 50 µg/mL (≈ 98.8 µM); in series [1] (simulated gastric fluid, pH = 2, hydrochloric acid, 1% DMSO (v/v), read-out: Aqueous solubility in μg/ml at pH = 2), more than 100 µg/mL. Further, the Ki in series [2] is 31.6 nM.
Turning to `CCN(C)Cc1c(C(=O)NN2CCCCC2)nc(-c2ccc(Cl)cc2Cl)n1-c1ccc(Cl)cc1` [Compound 6, N-(piperidin-1-yl)-1-(4-chlorophenyl)-2-(2,4-dichlorophenyl)-5-(N-ethyl, N-methylaminomethyl)-1H-imidazole-4-carboxamide], in series [2], the Ki was 126 nM.
